Data taken from US11026427B2, “Microbiocidal oxadiazole derivatives” (SYNGENTA PARTICIPATIONS AG, priority 2016, dated 2021).

What was measured:
[1] = test system: Glomerella lacenarium (Colletotrichum lacenarium); assay: Glomerella lacenarium (Colletotrichum lacenarium) liquid culture / cucumber / preventative (anthracnose); type: cell-based; conditions: 20 ppm in the applied formulation, growth inhibition measured photometrically, compared to untreated control, read-out: disease control
Description: Mycelia fragments or conidia suspensions of a fungus prepared either freshly from liquid cultures of the fungus or from cryogenic storage, are directly mixed into nutrient broth. DMSO solutions of the test compound (max. 10 mg/ml) are diluted with 0.025% Tween20 by a factor of 50 and 10 μl of this solution is pipetted into a microtiter plate (96-well format). The nutrient broth containing the fungal spores/mycelia fragments is then added to give an end concentration of the tested compound. The test plates are incubated in the dark at 24° C. and 96% relative humidity. The inhibition of fungal growth is determined photometrically after 2 to 7 days, depending on the pathosystem, and percent antifungal activity relative to the untreated check is calculated.
Conidia of the fungus from cryogenic storage are directly mixed into nutrient broth (PDB—potato dextrose broth). After placing a (DMSO) solution of test compound into a microtiter plate (96-well format), the nutrient broth containing the fungal spores is added. The test plates are incubated at 24° C. and the inhibition of growth is measured photometrically 3 to 4 days after application.
The following compounds at 20 ppm in the applied formulation give at least 80% disease control in this test when compared to untreated control under the same conditions, which show extensive disease development.

Phakopsora pachyrhizi = Phakopsora pachyrhizi / soybean / leaf disc preventative (Asian soybean rust); type: in vivo; conditions: foliar, 200 ppm in the applied formulation, compared to untreated control, read-out: disease control
Description: (§1) Leaf disks or leaf segments of various plant species are cut from plants grown in a greenhouse. The cut leaf disks or segments are placed in multiwell plates (24-well format) onto water agar. The leaf disks are sprayed with a test solution before (preventative) or after (curative) inoculation. Compounds to be tested are prepared as DMSO solutions (max. 10 mg/ml) which are diluted to the appropriate concentration with 0.025% Tween20 just before spraying. The inoculated leaf disks or segments are incubated under defined conditions (temperature, relative humidity, light, etc.) according to the respective test system. A single evaluation of disease level is carried out 3 to 14 days after inoculation, depending on the pathosystem. Percent disease control relative to the untreated check leaf disks or segments is then calculated.
Soybean leaf disks are placed on water agar in multiwell plates (24-well format) and sprayed with the formulated test compound diluted in water. One day after application leaf discs are inoculated by spraying a spore suspension on the lower leaf surface. After an incubation period in a climate cabinet of 24-36 hours in darkness at 20° C. and 75% rh leaf disc are kept at 20° C. with 12 h light/day and 75% rh. The activity of a compound is assessed as percent disease control compared to untreated when an appropriate level of disease damage appears in untreated check leaf disks (12 to 14 days after application).
(§2) The following compounds at 200 ppm in the applied formulation give at least 80% disease control in this test when compared to untreated control leaf disks under the same conditions, which show extensive disease development.

[2] = test system: Puccinia recondita f. Sp. tritici; assay: Puccinia recondita f. sp. tritici / wheat / leaf disc curative (brown rust); type: in vivo; conditions: foliar, 200 ppm in the applied formulation, compared to untreated control, read-out: disease control
Description: as §1
Wheat leaf segments cv. Kanzler are placed on agar in multiwell plates (24-well format). The leaf segments are then inoculated with a spore suspension of the fungus. Plates were stored in darkness at 19° C. and 75% relative humidity. The formulated test compound diluted in water was applied 1 day after inoculation. The leaf segments were incubated at 19° C. and 75% relative humidity under a light regime of 12 hours light/12 hours darkness in a climate cabinet and the activity of a compound was assessed as percent disease control compared to untreated when an appropriate level of disease damage appears in untreated check leaf segments (6 to 8 days after application).
as §2

[3] = test system: Puccinia recondita f. Sp. tritici; assay: Puccinia recondita f. sp. tritici / wheat / leaf disc preventative (brown rust); type: in vivo; conditions: foliar, 200 ppm in the applied formulation, compared to untreated control, read-out: disease control
Description: as §1, with “calculated. Wheat leaf segments cv. Kanzler were placed on agar in multiwell plates (24-well format) and sprayed with the formulated test compound diluted in water. The leaf disks were inoculated with a spore suspension of the fungus 1 day after application. The inoculated leaf segments were incubated at 19° C. and 75% relative humidity (rh) under a light regime of 12 hours light/12 hours darkness in a climate cabinet and the activity of a compound was assessed as percent disease control compared to untreated when an appropriate level of disease damage appears in untreated check leaf segments (7 to 9 days after application). The following compounds at 200 ppm in the applied formulation give at least 80% disease control in this test when compared to untreated control leaf disks under the same conditions, which show extensive disease development.” for “calculated.”

melting point [°C] | SMILES | inhibition of growth at 20 ppm [1] [%] | pest or weed control at 200 ppm (Phakopsora pachyrhizi) [%] | pest or weed control at 200 ppm [2] [%] | pest or weed control at 200 ppm [3] [%]
92 to 95 | O=C(c1ccc(-c2noc(C(F)(F)F)n2)cc1)c1ccc(F)cc1F [Compound 1.28, (2,4-difluorophenyl)-[4-[5-(trifluoromethyl)-1,2,4-oxadiazol-3-yl]phenyl]methanone] | ≥ 80 | ≥ 80 |  | 
85 to 88 | O=C(c1ccc(-c2noc(C(F)(F)F)n2)cc1)c1cccc(OC(F)F)c1 [Compound 1.29, [3-(difluoromethoxy)phenyl]-[4-[5-(trifluoromethyl)-1,2,4-oxadiazol-3-yl]phenyl]methanone] | ≥ 80 | ≥ 80 |  | 
92 to 93 | CCOC(=O)c1cnc(C(=O)c2ccc(-c3noc(C(F)(F)F)n3)cc2)nc1C [Compound 1.31, ethyl 4-methyl-2-[4-[5-(trifluoromethyl)-1,2,4-oxadiazol-3-yl]benzoyl]pyrimidine-5-carboxylate] | ≥ 80 |  |  | 
68 to 74 | O=C(c1ccc(-c2noc(C(F)(F)F)n2)cc1)c1cscn1 [Compound 1.32, thiazol-4-yl-[4-[5-(trifluoromethyl)-1,2,4-oxadiazol-3-yl]phenyl]methanone] | ≥ 80 | ≥ 80 |  | 
116 to 120 | Cc1ncc(C(=O)c2ccc(-c3noc(C(F)(F)F)n3)cc2)s1 [Compound 1.34, (2-methylthiazol-5-yl)-[4-[5-(trifluoromethyl)-1,2,4-oxadiazol-3-yl]phenyl]methanone] | ≥ 80 |  | ≥ 80 | 
80 to 84 | Cc1cncc(C(=O)c2ccc(-c3noc(C(F)(F)F)n3)cc2)c1 [Compound 1.36, (5-methyl-3-pyridyl)-[4-[5-(trifluoromethyl)-1,2,4-oxadiazol-3-yl]phenyl]methanone] |  |  |  | 
60 to 75 | CC(C)(C)C(O)c1ccc(-c2noc(C(F)(F)F)n2)cc1 (stereo not drawn) [Compound 2.1, 2,2-dimethyl-1-[4-[5-(trifluoromethyl)-1,2,4-oxadiazol-3-yl]phenyl]propan-1-ol] | ≥ 80 | ≥ 80 |  | 
79 to 80 | N#CC(O)c1ccc(-c2noc(C(F)(F)F)n2)cc1 (stereo not drawn) [Compound 2.11, 2-hydroxy-2-[4-[5-(trifluoromethyl)-1,2,4-oxadiazol-3-yl]phenyl]acetonitrile] | ≥ 80 |  |  | ≥ 80
66 to 68 | CCC(O)c1ccc(-c2noc(C(F)(F)F)n2)cc1 (stereo not drawn) [Compound 2.16, 1-[4-[5-(trifluoromethyl)-1,2,4-oxadiazol-3-yl]phenyl]propan-1-ol] | ≥ 80 |  |  | 
45 to 48 | C=CCC(O)c1ccc(-c2noc(C(F)(F)F)n2)cc1 (stereo not drawn) [Compound 2.17, 1-[4-[5-(trifluoromethyl)-1,2,4-oxadiazol-3-yl]phenyl]but-3-en-1-ol] | ≥ 80 | ≥ 80 |  | 
118 to 122 | CCOC(=O)c1csc(C(O)c2ccc(-c3noc(C(F)(F)F)n3)cc2)n1 (stereo not drawn) [Compound 2.19, ethyl 2-[hydroxy-[4-[5-(trifluoromethyl)-1,2,4-oxadiazol-3-yl]phenyl]methyl]thiazole-4-carboxylate] |  |  |  | ≥ 80

Continued, molecule first:

SMILES | melting point [°C] | inhibition of growth at 20 ppm [1] [%] | pest or weed control at 200 ppm (Phakopsora pachyrhizi) [%] | pest or weed control at 200 ppm [2] [%] | pest or weed control at 200 ppm [3] [%]
CCCCC(=O)c1ccc(-c2noc(C(F)(F)F)n2)cc1 [Compound 1.5, 1-[4-[5-(trifluoromethyl)-1,2,4-oxadiazol-3-yl]phenyl]pentan-1-one] | 57 to 61 | ≥ 80 |  |  | 
COc1ccc(C(=O)c2ccc(-c3noc(C(F)(F)F)n3)cc2)cn1 [Compound 1.15, (6-methoxy-3-pyridyl)-[4-[5-(trifluoromethyl)-1,2,4-oxadiazol-3-yl]phenyl]methanone] | 105 to 110 | ≥ 80 | ≥ 80 |  | 
CCOC(=O)c1cnn(CC(=O)c2ccc(-c3noc(C(F)(F)F)n3)cc2)c1 [Compound 1.19, ethyl 1-[2-oxo-2-[4-[5-(trifluoromethyl)-1,2,4-oxadiazol-3-yl]phenyl]ethyl]pyrazole-4-carboxylate] | 153.6 to 156.1 |  |  |  | 
O=C(c1ccc(-c2noc(C(F)(F)F)n2)cc1)c1ncc(C(F)(F)F)s1 [Compound 1.21, [4-[5-(trifluoromethyl)-1,2,4-oxadiazol-3-yl]phenyl]-[5-(trifluoromethyl)thiazol-2-yl]methanone] | 90 to 94 |  |  |  | 
CCOC(=O)c1cc(C(=O)c2ccc(-c3noc(C(F)(F)F)n3)cc2)on1 [Compound 1.22, ethyl 5-[4-[5-(trifluoromethyl)-1,2,4-oxadiazol-3-yl]benzoyl]isoxazole-3-carboxylate] | 197 to 200 | ≥ 80 |  |  | 
O=C(c1ccc(-c2noc(C(F)(F)F)n2)cc1)c1cnc(C(F)(F)F)s1 [Compound 1.23, [4-[5-(trifluoromethyl)-1,2,4-oxadiazol-3-yl]phenyl]-[2-(trifluoromethyl)thiazol-5-yl]methanone] | 126 to 132 |  |  |  | 
CCOC(=O)c1csc(C(=O)c2ccc(-c3noc(C(F)(F)F)n3)cc2)n1 [Compound 1.25, ethyl 2-[4-[5-(trifluoromethyl)-1,2,4-oxadiazol-3-yl]benzoyl]thiazole-4-carboxylate] | 78 to 82 |  |  |  | 
O=C(c1ccc(-c2noc(C(F)(F)F)n2)cc1)c1cnn(C(F)(F)F)c1 [Compound 1.26, [4-[5-(trifluoromethyl)-1,2,4-oxadiazol-3-yl]phenyl]-[1-(trifluoromethyl)pyrazol-4-yl]methanone] | 98 to 102 |  | ≥ 80 |  | 
OC(c1ccc(-c2noc(C(F)(F)F)n2)cc1)c1ccc(F)cc1F (stereo not drawn) [Compound 2.15, (2,4-difluorophenyl)-[4-[5-(trifluoromethyl)-1,2,4-oxadiazol-3-yl]phenyl]methanol] |  | ≥ 80 | ≥ 80 |  | ≥ 80
Cc1ccc(C(O)c2ccc(-c3noc(C(F)(F)F)n3)cc2)nc1 (stereo not drawn) [Compound 2.21, (5-methyl-2-pyridyl)-[4-[5-(trifluoromethyl)-1,2,4-oxadiazol-3-yl]phenyl]methanol] |  |  |  | ≥ 80 | ≥ 80
C=CCC(O)(c1ccc(-c2noc(C(F)(F)F)n2)cc1)c1cc(C)no1 (stereo not drawn) [Compound 2.23, 1-(3-methylisoxazol-5-yl)-1-[4-[5-(trifluoromethyl)-1,2,4-oxadiazol-3-yl]phenyl]but-3-en-1-ol] |  |  |  | ≥ 80 | 
Cc1cc(C(O)(c2ccc(-c3noc(C(F)(F)F)n3)cc2)C(C)C)on1 (stereo not drawn) [Compound 2.29, 2-methyl-1-(3-methylisoxazol-5-yl)-1-[4-[5-(trifluoromethyl)-1,2,4-oxadiazol-3-yl]phenyl]propan-1-ol] |  |  |  |  | ≥ 80
